Test results taken from patent publication US20020004218A1, “Methods for identifying compounds useful for inhibiting geranylgeranyl diphosphate synthase” (priority 2000, published 2002).

Legend:
[1] = target: T1, rat liver squalene synthase (Rattus norvegicus, UniProt Q02769); settings: cited from earlier work
T1 construct: host or cells: rat liver
T1 sequence (Q02769 1-416): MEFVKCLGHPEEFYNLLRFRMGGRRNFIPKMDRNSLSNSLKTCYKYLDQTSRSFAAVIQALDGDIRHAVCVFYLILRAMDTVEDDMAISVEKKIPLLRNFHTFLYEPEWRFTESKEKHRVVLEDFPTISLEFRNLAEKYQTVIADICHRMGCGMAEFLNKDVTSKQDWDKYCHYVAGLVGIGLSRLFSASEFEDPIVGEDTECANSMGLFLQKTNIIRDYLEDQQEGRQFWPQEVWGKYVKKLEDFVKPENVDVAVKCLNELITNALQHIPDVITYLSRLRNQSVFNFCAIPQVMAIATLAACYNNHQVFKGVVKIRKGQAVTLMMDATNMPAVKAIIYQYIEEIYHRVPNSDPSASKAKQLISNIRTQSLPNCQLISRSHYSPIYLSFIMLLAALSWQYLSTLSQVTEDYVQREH

[2] = tested on: sterol synthesis; settings: incorporation of 14C-MVA into sterol, rat liver cell-free system; read-out: IC50, block of sterol synthesis; cited from earlier work
[3] = tested on: osteoclasts; settings: osteoclasts in culture; cited from earlier work
[4] = tested on: geranylgeranyl diphosphate synthase
From the text: The present invention relates to a method for identifying inhibitors of geranylgeranyl diphosphate synthase comprising:
a). contacting a putative geranylgeranyl diphosphate synthase inhibitor with a geranylgeranyl diphosphate synthase assay solution, and
b). determining, i.e. comparing, the geranylgeranyl diphosphate synthase activity of said assay solution with a geranylgeranyl diphosphate synthase assay solution not contacted with said putative inhibitor, in order to determine the amount of inhibition.
In these methods the geranylgeranyl diphosphatesynthase assay solution is typically an aqueous solution. The inhibition effect is measured with respect to the catalysis of an appropriate reaction that one of ordinary skill in the art can select. Reaction times, conditions, quatitation methods, and other variables are chosen for convenience to obtain a readily quantitated system for measuring the inhibition of the geranylgeranyl diphosphate synthase.
Additionally, in these methods of identifying inhibitors of geranylgeranyl diphosphate synthase, the enzyme can be used in a crude, unpurified state, from various tissues sources, e.g., liver. Alternatively, the enzyme can be used in a partially purified state, a purified state, or as an expressed form of the enzyme, e.g., the expressed human enzyme.

Row | Compound | inhibition of squalene synthase [1] | IC50 [2] [nM] | bone resorption [3] | osteoclast formation [3] | inhibition of geranylgeranyl diphosphate synthase [4]
1 | NCCCC(O)(P(=O)(O)O)P(=O)(O)O [alendronate, 4-amino-1-hydroxybutylidene-1,1-bisphosphonic acid monosodium trihydrate] | comparatively little effect | 168 | inhibited | inhibited | –
2 | NCCC(O)(P(=O)(O)O)P(=O)(O)O [pamidronate, 3-amino-1-hydroxypropylidene-1,1-bisphosphonic acid] | comparatively little effect | 420 | – | – | –
3 | CC[C@H](C)C(=O)O[C@H]1C[C@@H](C)C=C2C=C[C@H](C)[C@H](CC[C@@H]3C[C@@H](O)CC(=O)O3)[C@H]21 [lovastatin] | – | – | inhibited | inhibited | –
4 | O=P(O)(O)C(O)(Cc1cccnc1)P(=O)(O)O [risedronate, 1-hydroxy-2-(3-pyridinyl)-ethylidene-1,1-bisphosphonic acid] | – | – | – | – | specific nanomolar inhibitors
5 | O=P(O)(O)C(O)(CCN1CCCC1)P(=O)(O)O [EB 1053, 1-hydroxy-3-(1-pyrrolidinyl)-propylidene-1,1-bisphosphonic acid] | potent, nanomolar inhibitors | – | – | – | –
6 | O=P(O)(O)C(NC1CCCCCC1)P(=O)(O)O [YM 175, Cycloheptylaminomethylene-1,1-bisphosphonic acid] | potent, nanomolar inhibitors | – | – | – | –
